Laboratory results taken from article PMC6973020, “Quinoline‐Conjugated Ruthenacarboranes: Toward Hybrid Drugs with a Dual Mode of Action” (Chemmedchem, 2019).

Tests used:
[1] = system: LN229 cells; assay: CFSE staining, flow cytometry, LN229; type: cell-based, human; settings: LN229, 40 μM, 72 h
Experimental: (§1) Flow cytometry. For gaining better insights into the mechanisms of action of the ruthenium complexes, MCF‐7 and LN229 cells incubated with an IC50 dose of 3 or 4, were analyzed via flow cytometry. Several staining protocols were carried out in parallel, in independent experiments: i) AnnV/PI for the detection of apoptotic cell death, ii) AO for the detection of acidic vacuoles, iii) ApoStat for checking caspase activation, iv) CFSE for detecting interference with cellular proliferation, and v) DAPI for the detection of morphological signs of apoptosis. Untreated cells or cells treated only with BSA (control) were also measured, as reference for BSA‐free and BSA‐containing drug formulations, respectively. […] Channels FL1 (green emission), FL2 (orange emission) and/or FL3 (dark red emission) were used for fluorescence detection, according to the specific staining agent. Sideward Scatter (SSC) for MCF‐7 cells treated with 4 or BSA−4 was also analyzed, with respect to the control, for detection of shifts of cell granularity. […]
(§2) Staining Protocols for Flow Cytometric Analysis. […] Finally, cells were washed in PBS, resuspended in PBS (or AnnV‐binding buffer for AnnV/PI), and analysed. […] Cells were then washed, trypsinised, dissolved in PBS and analysed by CyFlow® Space Partec using the PartecFloMax® software (Partec GmbH, Münster, Germany). […]

[2] = system: MCF‐7 cells; assay: ApoStat staining (caspase activation), MCF‐7; type: cell-based, human; settings: MCF‐7, 20 μM, 72 h
Experimental: as §1, §2

[3] = Solubility in organic solvents (qualitative); type: physicochemical
[4] = system: LN229 human glioblastoma; assay: Crystal violet (CV) cell viability assay, LN229; type: cell-based; settings: CV assay, 72 h; read-out: IC50 LN229
From the text: (§3) Thus, care must be taken when comparing their biological activities with those of our previous studies, even with the same cell line, because the covalent vs. non‐covalent combination of drugs might imply different mechanisms of action in the cell.44 Here, we studied the in vitro activity of ruthenacarborane 3, i. e. free acid, and its 8‐hydroxyquinolyl (4) and 4‐{(7‐chloroquinolin‐4‐yl)oxy}butanol‐1‐yl (5) esters, against a panel of cancer cell lines (B16 mouse melanoma, A375 human skin melanoma, MCF‐7 human breast adenocarcinoma, LN229 human glioblastoma, U251 human glioma). Human fibroblast cell line MRC‐5, murine microglial cell line BV‐2 as well as peritoneal exudate cells (Mph), were chosen as models for non‐malignant cells. […] On the other side, we wanted to assess the reproducibility of the viability data, under either controlled (with BSA) or uncontrolled (without BSA) conditions, in two sets of independent assays. […] Cells were exposed to 3–5 for 72 h, after which cell viability was determined via 3‐(4,5‐dimethylthiazol‐2‐yl)‐2,5‐diphenyltetrazolium bromide (MTT) and crystal violet (CV) assays, in parallel (Table 2). Cisplatin was also tested as reference.
(§4) Preparation of drug solutions. […] Stock solution of cisplatin was prepared in DMF (10 mM) immediately before use. A stock solution of BSA in PBS was prepared at 1.28 mM concentration, and stored at 4 °C in the dark. […] Alternatively, 3 or 4 (DMSO stock solution) were added to the BSA solution in PBS, always with a 10 : 1 molar ratio of BSA to ruthenacarborane. The BSA−ruthenacarborane solutions were incubated 0.5–1 h at room temperature, then diluted with cell culture medium to the desired final concentrations. Final concentrations of 3 and 4 were the same as for the BSA‐free formulation. Final DMSO was 0.02–0.5 vol %.
Colorimetric assays for cellular viability. […] For counting the number of attached (viable) cells, cells were fixed with 4 % (w/v) paraformaldehyde for 10 min at room temperature, and subsequently stained for 15 min with […] crystal violet (CV) solution. Cells were then washed with tap water, dried in air, and the CV dye was dissolved in 33 % (w/v) acetic acid solution. For the detection of mitochondrial respiration, cells were cultivated in MTT staining solution (0.5 mg mL^−1) for approximately 1 h. The dye was then discarded, and the formed formazan (purple) was dissolved in DMSO. The absorbance was measured with an automated microplate reader at λmax 540 nm, with the reference λmax 670 nm. Untreated cells or cells treated only with BSA (control) were also measured, as reference for BSA‐free and BSA‐containing drug formulations, respectively. For determination of the role of autophagy specific inhibitors, CQ or 3‐MA, were applied at a concentration of 20 μM and 0.5 mM, respectively, and the cells were stained with CV dye. Cell viability is expressed as percentage (%) relative to control (untreated cultures).58 Experiments were run in three independent replicates. […] Non‐linear regression analyses of the obtained results was done using GraphPad Prism software to calculate IC50 values.
mouse microglial cell line BV‐2 was a kind gift from Dr. Irena Lavrnja, Institute for Biological Research
“Siniša Stanković” (University of Belgrade).

[5] = system: LN229 human glioblastoma; assay: MTT cell viability assay, LN229; type: cell-based; settings: 72 h
From the text: as §3, §4
Colorimetric assays for cellular viability. […] For counting the number of attached (viable) cells, cells were fixed with 4 % (w/v) paraformaldehyde for 10 min at room temperature, and subsequently stained for 15 min with […] crystal violet (CV) solution. Cells were then washed with tap water, dried in air, and the CV dye was dissolved in 33 % (w/v) acetic acid solution. For the detection of mitochondrial respiration, cells were cultivated in MTT staining solution (0.5 mg mL^−1) for approximately 1 h. The dye was then discarded, and the formed formazan (purple) was dissolved in DMSO. The absorbance was measured with an automated microplate reader at λmax 540 nm, with the reference λmax 670 nm. Untreated cells or cells treated only with BSA (control) were also measured, as reference for BSA‐free and BSA‐containing drug formulations, respectively. […] Cell viability is expressed as percentage (%) relative to control (untreated cultures).58 Experiments were run in three independent replicates. […]

Substance: closo ‐[3‐(η^6‐p‐Cymene)‐1‐(quinolin‐8‐yl‐acetate)‐3,1,2‐RuC2B9H10] [Compound 4]
- cellular proliferation (CFSE staining) [1]: strong inhibition of cellular proliferation
- caspase activation (ApoStat) [2]: caspase‐independent apoptosis
- solubility in organic solvents (in words) [3]: soluble in dichloromethane, chloroform, acetone and DMSO
- IC50 [4]: 33.4 ± 3.5 µM
- IC50 [5]: 42.4 ± 3.9 µM

Substance: closo‐ [Compound 3, closo‐ [3‐(η^6‐p‐Cymene)‐1‐(CH2COOH)‐3,1,2‐RuC2B9H10]]
- caspase activation (ApoStat) [2]: induce caspase activation
- solubility in organic solvents (in words) [3]: soluble in acetone, THF, acetonitrile and DMSO, moderately soluble in chloroform and dichloromethane
- IC50 [4]: 80 ± 7.7 µM
- IC50 [5]: 80.1 ± 4 µM
